From patent publication US12263181B2, “Phospholipid compositions” (MACHAVERT PHARMACEUTICALS LLC, priority 2016, dated 2025)

Legend:
[1] = system: human pancreatic carcinoma cell line (Capan-2); experiment: In vivo tumor growth inhibition, Capan-2 xenograft in nude mice; conditions: oral, 0.1 mL of a 30% (w/w) solution in sunflower oil once a day for 42 days
Description: In vivo measurements of tumor growth inhibition in mice were conducted to determine efficacy of BAP(+), BAP(−), and fractions thereof. A human pancreatic carcinoma cell line (Capan-2 available from European Collection of Cell Cultures, Salisbury UK) was cultivated at 37° C. in a humidified 5% CO2/95% air atmosphere using high glucose D-MEM medium supplemented with 20% fetal bovine serum, 2% penicillin/streptomycin and 1.25% L-glutamine. Before application, cells were harvested by trypsinisation for 30 minutes. Harvested Capan-2 cells were administered subcutaneously to each mouse as 1×10^7 cells in a mixture with a basement membrane preparation (BD MATRIGEL, available from I.T.A.-Interact, Prague CZ). Administration was in the rear right flank of Hsd:athymic nude-Fox n1nu mice (available from Anlab, Prague CZ). […]
Table 12 gives the percentage of tumor weight growth inhibition (% WGI) as compared to the control for various BAP mixtures including BAP(−), BAP(+), pooled fractions F1-F4, F5, a fraction comprising a pooled collection of the F5 sub-fractions enriched in more PCs comprising saturated fatty acids acyl residues (“F5A”), a fraction which comprising a pooled collection of F5 sub-fractions enriched in more PCs comprising unsaturated fatty acid acyl residues (“F5B”), and a fraction of BAP(+) possibly enriched in LPC's (“F5C”). Glycerophosphocholine (GPC) was also evaluated. […]

[2] = biological target: T1, ALK C1156Y (Homo sapiens, UniProt Q9UM73, C1156Y); experiment: LANTHASCREEN Eu Kinase Binding Assay; conditions: 10 μM solutions, two independent measurements
T1 construct: purchased Life Technologies
Description: (§1) Measurement of inhibition of various kinases was also performed by binding a tracer to a kinase and the addition of Europium labeled anti-tag antibodies. When bound to the same kinase, the tracer and Europium interact through FRET and fluoresce. Binding of the tracer and antibody to a kinase results in a high degree of FRET, whereas displacement of the tracer with a kinase inhibitor results in a loss of FRET. This method of measurement removes the cleavage step necessary in the above FRET measurement.
(§2) The kinase inhibitory activity of various 10 μM solutions of various fractions was measured (LANTHASCREEN Eu Kinase Binding Assay Profiling Service available from Life Technologies). In these measurements, greater percent displacement indicates greater kinase inhibition. […] The average % displacement is representative of two independent measurements.

[3] = biological target: T2, KIT D816H (Homo sapiens, UniProt P10721, D816H); experiment: LANTHASCREEN Eu Kinase Binding Assay; conditions: 10 μM solutions, two independent measurements
T2 construct: purchased Life Technologies
T2 sequence (P10721 26-976 D816H): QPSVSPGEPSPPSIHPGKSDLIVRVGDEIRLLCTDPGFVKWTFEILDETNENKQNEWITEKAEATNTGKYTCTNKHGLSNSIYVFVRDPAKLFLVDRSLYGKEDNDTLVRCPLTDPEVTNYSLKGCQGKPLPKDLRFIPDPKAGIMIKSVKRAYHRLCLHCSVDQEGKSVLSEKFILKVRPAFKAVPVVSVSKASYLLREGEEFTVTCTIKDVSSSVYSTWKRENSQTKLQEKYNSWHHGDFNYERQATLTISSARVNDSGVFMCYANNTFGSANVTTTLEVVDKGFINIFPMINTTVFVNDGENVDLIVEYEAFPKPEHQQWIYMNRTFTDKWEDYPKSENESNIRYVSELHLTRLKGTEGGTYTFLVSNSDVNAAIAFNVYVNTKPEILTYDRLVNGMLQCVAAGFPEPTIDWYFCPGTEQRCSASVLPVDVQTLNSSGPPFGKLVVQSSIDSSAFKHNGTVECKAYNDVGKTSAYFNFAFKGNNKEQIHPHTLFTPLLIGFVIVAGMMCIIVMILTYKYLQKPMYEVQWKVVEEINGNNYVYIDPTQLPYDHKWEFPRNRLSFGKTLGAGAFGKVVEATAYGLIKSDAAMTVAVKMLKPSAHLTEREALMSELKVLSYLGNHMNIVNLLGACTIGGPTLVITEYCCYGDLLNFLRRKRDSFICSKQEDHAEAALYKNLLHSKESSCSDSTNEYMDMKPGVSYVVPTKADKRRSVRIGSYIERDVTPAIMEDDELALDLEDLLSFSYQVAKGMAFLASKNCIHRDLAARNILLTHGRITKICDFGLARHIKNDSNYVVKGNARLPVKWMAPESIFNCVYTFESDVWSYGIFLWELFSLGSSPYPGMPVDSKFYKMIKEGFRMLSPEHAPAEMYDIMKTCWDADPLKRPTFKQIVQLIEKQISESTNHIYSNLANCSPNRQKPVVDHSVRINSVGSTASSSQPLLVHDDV
Description: as §1, §2

[4] = biological target: T3, ABL1 M351T (Homo sapiens, UniProt P00519, M351T); experiment: LANTHASCREEN Eu Kinase Binding Assay; conditions: 10 μM solutions, two independent measurements
T3 construct: purchased Life Technologies
Description: as §1, §2

[5] = biological target: T4, TTK (Homo sapiens, UniProt P33981); experiment: LANTHASCREEN Eu Kinase Binding Assay; conditions: 10 μM solutions, two independent measurements
T4 construct: purchased Life Technologies
T4 sequence (P33981 1-857): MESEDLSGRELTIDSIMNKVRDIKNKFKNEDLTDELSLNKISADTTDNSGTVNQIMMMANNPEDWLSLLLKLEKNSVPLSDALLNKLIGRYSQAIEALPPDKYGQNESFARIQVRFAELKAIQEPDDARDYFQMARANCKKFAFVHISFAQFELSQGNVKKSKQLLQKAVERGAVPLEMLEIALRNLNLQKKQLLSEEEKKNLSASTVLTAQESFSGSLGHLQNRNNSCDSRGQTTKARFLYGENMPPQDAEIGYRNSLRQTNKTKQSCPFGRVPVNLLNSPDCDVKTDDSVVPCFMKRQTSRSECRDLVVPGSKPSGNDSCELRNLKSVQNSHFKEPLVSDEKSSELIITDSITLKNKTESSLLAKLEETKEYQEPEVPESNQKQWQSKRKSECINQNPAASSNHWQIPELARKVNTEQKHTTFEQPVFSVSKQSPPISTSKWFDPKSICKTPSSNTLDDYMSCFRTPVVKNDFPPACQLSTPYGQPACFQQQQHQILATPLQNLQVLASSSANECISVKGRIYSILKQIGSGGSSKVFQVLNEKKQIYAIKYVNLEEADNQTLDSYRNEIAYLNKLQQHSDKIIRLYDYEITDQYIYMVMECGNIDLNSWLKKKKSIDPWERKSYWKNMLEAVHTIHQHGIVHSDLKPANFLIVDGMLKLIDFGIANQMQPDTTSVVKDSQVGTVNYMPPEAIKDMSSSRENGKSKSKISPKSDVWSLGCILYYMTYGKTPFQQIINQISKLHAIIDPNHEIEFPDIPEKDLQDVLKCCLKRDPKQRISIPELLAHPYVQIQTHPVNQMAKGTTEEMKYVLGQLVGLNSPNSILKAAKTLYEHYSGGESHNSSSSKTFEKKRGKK
Description: as §1, §2

[6] = biological target: T5, KIT Y823D (Homo sapiens, UniProt P10721, Y823D); experiment: LANTHASCREEN Eu Kinase Binding Assay; conditions: 10 μM solutions, two independent measurements
T5 construct: purchased Life Technologies
T5 sequence (P10721 26-976 Y823D): as the sequence (P10721 26-976 D816H) above, with H791D, Y798D counted along it
Description: as §1, §2

[7] = biological target: T6, KIT N822K (Homo sapiens, UniProt P10721, N822K); experiment: LANTHASCREEN Eu Kinase Binding Assay; conditions: 10 μM solutions, two independent measurements
T6 construct: purchased Life Technologies
T6 sequence (P10721 26-976 N822K): as the sequence (P10721 26-976 D816H) above, with H791D, N797K counted along it
Description: as §1, §2

[8] = biological target: T7, EGFR (ErbB1) d746-750 (Homo sapiens, UniProt P00533, DEL746-750); experiment: LANTHASCREEN Eu Kinase Binding Assay; conditions: 10 μM solutions, two independent measurements
T7 construct: purchased Life Technologies
T7 sequence (P00533 with tags, fused parts or gaps DEL746-750 limits assumed): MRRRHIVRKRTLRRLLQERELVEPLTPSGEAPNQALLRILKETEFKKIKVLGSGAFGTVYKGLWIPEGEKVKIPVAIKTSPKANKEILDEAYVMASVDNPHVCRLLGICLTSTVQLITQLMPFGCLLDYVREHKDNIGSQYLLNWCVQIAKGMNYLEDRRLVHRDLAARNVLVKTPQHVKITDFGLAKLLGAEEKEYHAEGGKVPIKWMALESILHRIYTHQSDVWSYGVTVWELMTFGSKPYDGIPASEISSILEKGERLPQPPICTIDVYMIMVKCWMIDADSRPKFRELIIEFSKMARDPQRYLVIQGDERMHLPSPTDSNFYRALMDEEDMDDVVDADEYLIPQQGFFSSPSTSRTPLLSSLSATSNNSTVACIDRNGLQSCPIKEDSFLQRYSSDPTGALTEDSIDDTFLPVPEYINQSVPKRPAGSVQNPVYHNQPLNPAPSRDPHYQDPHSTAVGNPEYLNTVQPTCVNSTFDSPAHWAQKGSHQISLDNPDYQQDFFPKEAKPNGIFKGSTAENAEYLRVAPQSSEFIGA
Description: as §1, §2

[9] = biological target: T8, WEE1 (Homo sapiens, UniProt P30291); experiment: LANTHASCREEN Eu Kinase Binding Assay; conditions: 10 μM solutions, two independent measurements
T8 construct: purchased Life Technologies
T8 sequence (P30291 whole entry): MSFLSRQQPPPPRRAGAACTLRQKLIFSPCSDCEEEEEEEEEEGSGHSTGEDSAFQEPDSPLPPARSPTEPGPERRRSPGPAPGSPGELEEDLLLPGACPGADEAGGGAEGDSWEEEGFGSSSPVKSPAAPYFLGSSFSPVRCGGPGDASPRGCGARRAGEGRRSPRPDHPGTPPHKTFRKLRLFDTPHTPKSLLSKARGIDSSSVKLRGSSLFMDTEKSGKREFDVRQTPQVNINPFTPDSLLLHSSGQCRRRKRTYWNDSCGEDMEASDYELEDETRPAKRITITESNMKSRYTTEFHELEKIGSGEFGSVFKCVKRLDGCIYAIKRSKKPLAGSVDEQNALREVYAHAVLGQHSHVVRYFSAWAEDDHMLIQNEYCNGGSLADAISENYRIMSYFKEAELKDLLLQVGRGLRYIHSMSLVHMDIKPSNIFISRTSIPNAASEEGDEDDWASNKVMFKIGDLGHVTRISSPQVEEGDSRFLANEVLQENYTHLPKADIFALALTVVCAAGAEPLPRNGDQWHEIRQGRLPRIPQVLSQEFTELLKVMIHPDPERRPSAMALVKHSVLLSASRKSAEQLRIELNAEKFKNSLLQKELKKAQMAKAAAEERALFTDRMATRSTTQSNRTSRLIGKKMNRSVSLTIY
Description: as §1, §2

[10] = biological target: T9, various kinases (Homo sapiens, UniProt O14965); experiment: FRET-peptide kinase inhibition (SELECTSCREEN Kinase Profiling Service); type: biochemical; conditions: kinase AURKA (Aurora A); 10 μM solution; ATP at Km
T9 construct: purchased Life Technologies
T9 sequence (O14965 1-403): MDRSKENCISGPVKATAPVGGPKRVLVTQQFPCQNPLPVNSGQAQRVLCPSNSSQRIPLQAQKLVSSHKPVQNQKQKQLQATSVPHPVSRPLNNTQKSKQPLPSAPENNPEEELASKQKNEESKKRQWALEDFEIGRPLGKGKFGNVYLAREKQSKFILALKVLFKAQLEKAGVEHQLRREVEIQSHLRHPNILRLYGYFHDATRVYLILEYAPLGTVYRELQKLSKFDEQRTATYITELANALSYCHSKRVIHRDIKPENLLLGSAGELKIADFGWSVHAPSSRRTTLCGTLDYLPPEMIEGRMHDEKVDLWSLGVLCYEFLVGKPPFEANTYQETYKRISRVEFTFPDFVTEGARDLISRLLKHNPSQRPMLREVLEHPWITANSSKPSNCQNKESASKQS
Description: (§3) Inhibition of various kinases was measured using fluorescence resonance energy transfer (FRET) analysis. Briefly, a kinase is used to transfer the γ-phosphate of ATP to a single tyrosine, serine, or threonine residue in a synthetic FRET-peptide in the presence of each tested fraction. A kinase inhibitor will prevent phosphorylation. FRET-peptides comprise a donor fluorophore and an acceptor fluorophore, where the acceptor fluorophore will only undergo fluorescence from the excitation wavelength of the donor fluorophore due to resonant energy transfer through the peptide. A development reagent is used to cleave the un-phosphorylated FRET-peptides. An uncleaved FRET-peptide (i.e., phosphorylated peptide) will therefore undergo measureable FRET of both acceptor and donor and be indicative of kinase inhibition. […] Because phosphorylation of FRET-peptides suppresses cleavage by the development reagent, calculation of the ratio of donor emission to acceptor emission after excitation of the donor fluorophore at approximately 400 nm is used to quantitate reaction progress. Low ratios indicate the FRET-peptide is phosphorylated (i.e., little kinase inhibition) and high ratios […] (i.e., kinase inhibition). The percent phosphorylation can therefore be calculated from the emission ratio based on controls for the maximum and minimum phosphorylation. The percent inhibition can be calculated based on the percent phosphorylation of a sample with each fraction as compared to the percent phosphorylation without each fraction.
(§4) The kinase inhibitory activity of various 10 μM solutions of various fractions was measured using the SELECTSCREEN Kinase Profiling Service available from Life Technologies. Unless otherwise indicated, the concentration of ATP in each well is the Michaelis-Menten constant (Km value-the concentration of ATP when the phosphorylation reaction velocity is equal half of the maximal velocity for the reaction). […] Z′ is a measure of statistical effect size to assess the quality of the assay. Z′>0.5 is indicative measurement separated from the background and a reliable assay result. The average % inhibition is representative of two independent measurements.

[11] = biological target: T10, various kinases (Homo sapiens, UniProt P41279); experiment: as above; type: biochemical; conditions: kinase MAP3K8 (COT); 10 μM solution; ATP concentration of 100 μM
T10 construct: purchased Life Technologies
T10 sequence (P41279 whole entry): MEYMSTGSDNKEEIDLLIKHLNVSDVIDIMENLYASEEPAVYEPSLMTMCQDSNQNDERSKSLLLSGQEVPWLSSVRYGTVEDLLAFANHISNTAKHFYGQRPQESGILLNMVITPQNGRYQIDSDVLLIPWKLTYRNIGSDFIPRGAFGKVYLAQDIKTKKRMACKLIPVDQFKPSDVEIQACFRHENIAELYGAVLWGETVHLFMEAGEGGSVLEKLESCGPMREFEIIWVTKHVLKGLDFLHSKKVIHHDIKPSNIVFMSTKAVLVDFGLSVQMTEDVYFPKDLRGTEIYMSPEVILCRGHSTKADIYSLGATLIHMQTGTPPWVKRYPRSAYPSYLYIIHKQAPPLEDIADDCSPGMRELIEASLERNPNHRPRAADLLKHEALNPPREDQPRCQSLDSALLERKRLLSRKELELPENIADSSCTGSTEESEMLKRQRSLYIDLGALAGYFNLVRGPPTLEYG
Description: as §3, §4

[12] = biological target: T11, various kinases (Homo sapiens, UniProt P48736); experiment: as above; type: biochemical; conditions: kinase PIK3CG (p110 gamma); 10 μM solution; ATP at Km
T11 construct: purchased Life Technologies
T11 sequence (P48736 whole entry): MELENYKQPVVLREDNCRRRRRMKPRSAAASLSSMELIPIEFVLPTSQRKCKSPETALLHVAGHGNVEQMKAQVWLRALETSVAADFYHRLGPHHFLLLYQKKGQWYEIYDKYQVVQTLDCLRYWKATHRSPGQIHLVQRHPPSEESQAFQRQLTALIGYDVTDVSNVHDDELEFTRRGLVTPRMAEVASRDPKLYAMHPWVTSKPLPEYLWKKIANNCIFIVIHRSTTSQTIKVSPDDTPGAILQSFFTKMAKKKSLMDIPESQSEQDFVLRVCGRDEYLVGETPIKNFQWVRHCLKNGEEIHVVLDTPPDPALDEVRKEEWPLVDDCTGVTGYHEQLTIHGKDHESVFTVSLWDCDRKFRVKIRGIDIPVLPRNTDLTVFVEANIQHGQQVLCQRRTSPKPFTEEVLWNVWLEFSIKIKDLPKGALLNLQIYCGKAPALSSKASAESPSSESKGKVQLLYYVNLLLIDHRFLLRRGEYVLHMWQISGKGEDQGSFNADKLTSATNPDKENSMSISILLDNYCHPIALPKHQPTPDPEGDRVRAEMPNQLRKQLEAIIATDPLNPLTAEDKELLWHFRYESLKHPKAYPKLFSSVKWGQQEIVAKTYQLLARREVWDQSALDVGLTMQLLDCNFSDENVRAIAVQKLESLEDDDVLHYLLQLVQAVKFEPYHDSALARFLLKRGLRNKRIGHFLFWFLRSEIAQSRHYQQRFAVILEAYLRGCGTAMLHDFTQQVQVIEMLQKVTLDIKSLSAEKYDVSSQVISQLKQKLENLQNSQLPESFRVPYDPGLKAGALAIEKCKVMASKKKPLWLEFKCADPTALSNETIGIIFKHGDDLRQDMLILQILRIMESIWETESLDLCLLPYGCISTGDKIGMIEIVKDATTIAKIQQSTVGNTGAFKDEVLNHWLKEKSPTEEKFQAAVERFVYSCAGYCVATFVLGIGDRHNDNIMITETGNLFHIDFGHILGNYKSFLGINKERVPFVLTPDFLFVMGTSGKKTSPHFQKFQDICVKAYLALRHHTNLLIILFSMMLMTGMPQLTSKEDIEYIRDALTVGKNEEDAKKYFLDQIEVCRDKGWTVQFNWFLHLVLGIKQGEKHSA
Description: as §3, §4

[13] = biological target: T12, mTOR kinase (Homo sapiens, UniProt P42345); experiment: as above; type: biochemical; conditions: kinase FRAP1 (mTOR); 10 μM solution; ATP at Km
T12 construct: purchased Life Technologies
Description: as §3, §4

[14] = biological target: T13, various kinases (Homo sapiens, UniProt Q96GD4); experiment: as above; type: biochemical; conditions: kinase AURKB (Aurora B); 10 μM solution; ATP at Km
T13 construct: purchased Life Technologies
T13 sequence (Q96GD4 whole entry): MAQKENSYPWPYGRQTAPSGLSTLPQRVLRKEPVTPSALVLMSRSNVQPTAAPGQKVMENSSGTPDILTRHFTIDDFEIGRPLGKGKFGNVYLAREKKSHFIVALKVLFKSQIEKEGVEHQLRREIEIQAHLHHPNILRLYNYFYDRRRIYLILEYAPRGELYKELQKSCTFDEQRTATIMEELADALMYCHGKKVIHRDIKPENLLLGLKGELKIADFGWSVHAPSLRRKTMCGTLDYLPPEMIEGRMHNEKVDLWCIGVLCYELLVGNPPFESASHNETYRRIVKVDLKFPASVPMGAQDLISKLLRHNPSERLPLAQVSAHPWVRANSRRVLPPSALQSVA
Description: as §3, §4

[15] = biological target: T14, various kinases (Homo sapiens, UniProt Q8TF76); experiment: as above; type: biochemical; conditions: kinase GSG2 (Haspin); 10 μM solution; ATP at Km
T14 construct: purchased Life Technologies
T14 sequence (Q8TF76 1-798): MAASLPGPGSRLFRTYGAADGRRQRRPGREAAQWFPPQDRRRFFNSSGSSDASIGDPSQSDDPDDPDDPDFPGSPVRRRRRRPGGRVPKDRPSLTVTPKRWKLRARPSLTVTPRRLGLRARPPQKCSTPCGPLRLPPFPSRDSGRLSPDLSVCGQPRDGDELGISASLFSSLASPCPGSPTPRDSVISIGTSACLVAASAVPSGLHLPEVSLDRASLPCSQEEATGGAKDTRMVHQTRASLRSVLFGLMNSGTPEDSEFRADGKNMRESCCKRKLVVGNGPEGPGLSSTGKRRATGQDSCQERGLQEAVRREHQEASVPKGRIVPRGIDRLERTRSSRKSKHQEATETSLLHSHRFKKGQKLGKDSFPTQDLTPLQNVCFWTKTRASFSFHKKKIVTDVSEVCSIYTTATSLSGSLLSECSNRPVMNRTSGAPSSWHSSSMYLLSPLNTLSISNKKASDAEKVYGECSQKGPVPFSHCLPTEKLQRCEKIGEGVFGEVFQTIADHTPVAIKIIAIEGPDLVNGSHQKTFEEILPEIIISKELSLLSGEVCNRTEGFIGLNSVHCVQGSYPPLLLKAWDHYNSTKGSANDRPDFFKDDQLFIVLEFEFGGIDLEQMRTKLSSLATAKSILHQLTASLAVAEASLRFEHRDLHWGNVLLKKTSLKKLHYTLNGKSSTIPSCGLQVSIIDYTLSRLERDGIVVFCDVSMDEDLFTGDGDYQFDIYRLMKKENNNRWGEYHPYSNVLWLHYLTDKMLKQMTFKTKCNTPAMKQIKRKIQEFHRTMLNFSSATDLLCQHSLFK
Description: as §3, §4

[16] = biological target: T15, SPHK1 kinase (Homo sapiens, UniProt Q9NYA1); experiment: as above; type: biochemical; conditions: 10 μM solution, ATP at Km
T15 construct: purchased Life Technologies
T15 sequence (Q9NYA1 whole entry): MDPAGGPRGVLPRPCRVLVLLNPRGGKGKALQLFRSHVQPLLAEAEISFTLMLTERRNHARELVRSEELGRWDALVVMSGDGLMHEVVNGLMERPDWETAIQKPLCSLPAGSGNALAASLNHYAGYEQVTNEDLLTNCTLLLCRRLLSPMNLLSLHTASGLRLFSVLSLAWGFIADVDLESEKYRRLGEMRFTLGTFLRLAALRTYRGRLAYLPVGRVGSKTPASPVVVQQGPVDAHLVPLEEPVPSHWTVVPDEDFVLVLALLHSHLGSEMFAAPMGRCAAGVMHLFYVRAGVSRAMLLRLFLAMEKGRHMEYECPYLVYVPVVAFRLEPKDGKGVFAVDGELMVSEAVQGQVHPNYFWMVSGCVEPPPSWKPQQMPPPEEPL
Description: as §3, §4

**Q.** For `C[N+](C)(C)CCOP(=O)([O-])OC[C@H](O)CO` [GPC, glycerophosphocholine], which “% WGI (percentage of tumor weight growth inhibition as compared to the control)” value [1] is on record?
**A.** −41.9%

**Q.** What about the “Average % Displacement” value [2] of the same compound?
**A.** 4%

**Q.** What about the “Average % Displacement” value [3] of the same compound?
**A.** 1%

**Q.** What about the “Average % Displacement” value [4] of the same compound?
**A.** 4%

**Q.** What about the “Average % Displacement” value [5] of the same compound?
**A.** 24%

**Q.** And the “Average % Displacement” value [6]?
**A.** 2%

**Q.** And the “Average % Displacement” value [7]?
**A.** −1%

**Q.** And the “Average % Displacement” value [8]?
**A.** −1%

**Q.** And the “Average % Displacement” value [9]?
**A.** 5%

**Q.** And the “Average % Inhibition” value [10]?
**A.** 22%

**Q.** And the “Average % Inhibition” value [11]?
**A.** 7%

**Q.** And the “Average % Inhibition” value [12]?
**A.** 2%

**Q.** What about the “Average % Inhibition” value [13] of the same compound?
**A.** −1%

**Q.** What about the “Average % Inhibition” value [14] of the same compound?
**A.** 13%

**Q.** What about the “Average % Inhibition” value [15] of the same compound?
**A.** 14%

**Q.** And the “Average % Inhibition” value [16]?
**A.** −5%
